# Source: US11186588B2 (AYUMI PHARMACEUTICAL CORPORATION, priority 2017, dated 2021)
# Key:
# IL-6 production = assay: LPS-induced IL-6 production model test; type: in vivo, C57BL/6J mice; conditions: Mus musculus, 1 h; 10 mg/kg oral, 30 min before LPS 1 mg/kg i.p., serum IL-6 60 min after LPS, mice
# Procedure: In order to evaluate the inhibitory activity of inflammatory cytokine production in the present compounds, LPS-induced IL-6 production model evaluation was carried out. The specific method is described below.
# An appropriate amount of each compound was weighed, triturated with an agate mortar, and suspended or dissolved in 1% methyl cellulose solution to prepare 1 mg/mL solution.
# C57BL/6J mice (male, Purchaser: Charles River Laboratories Japan, Inc.) were weighted, before divided into normal group, control group and each compound-administered group based on the measured body weight using a random number, wherein each group contained 6 samples. The mice were manually held in hands and forced orally administered the 1% methyl cellulose solution (normal and control group) or each administration solution comprising the compound (each compound-administered group) at a dose of 10 mL/kg into stomach using a feeding needle. After 30 minutes from administration of the 1% methyl cellulose solution or each compound administration solution, the mice were manually held in hands and intraperitoneally administered physiological saline (normal group) or LPS solution (control and each compound-administered group) at a dose of 1 mg/kg. After 60 minutes from administration of the LPS solution, whole blood was collected from the abdominal vena cava of each mouse under isoflurane inhalation anesthesia (available from Mylan Seiyaku Ltd.), and the mice were euthanized. The collected blood was allowed to stand at room temperature for one hour, and then centrifuged at 1,500 G for 10 minutes to collect a serum (supernatant). The collected serum was stored in a deep freezer set at −80° C. until the measurement of IL-6 in the serum. The IL-6 concentration in the serum of each mouse was measured by a commercially available kit (available from R&D systems, Cat No. M6000B), according to the protocol attached thereto.
# The IL-6 production inhibition rate (%) was calculated by the following equation using Microsoft EXCEL 2010. IL-6 production inhibition rate (%)=100−{(average value of IL-6 concentration in serum of each compound-administered group)−(average value of IL-6 concentration in serum of normal group))/(average value of IL-6 concentration in serum of control group)−(average value of IL-6 concentration in serum of normal group)}×100
# [1] = biological target: Recombinant BRD4 (44-168) protein (Homo sapiens (Human), UniProt O60885); assay: BRD4-H4KAc4 binding assay (amplified luminescence proximity homogeneous assay, AlphaScreen); conditions: 10 uM
# In short: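 His/FLAG-tagged BRD4 (44-168) and biotinylated tetra-acetylated H4 peptide, each added as 250 nM solutions, incubated with compound 60 min at room temperature in the dark, then AlphaScreen beads 60 min. Emission 520-620 nm at 680 nm excitation, duplicates; % inhibition from blank- and DMSO-corrected signal.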
# [2] = test system: type II collagen-induced arthritis; assay: Rat type II collagen-induced arthritis model evaluation test; type: in vivo, LEW/CrlCrlj rats; conditions: oral 6 mg/mL solution at 5 mL/kg once a day from Day 12, hind limb volume on Day 21, rats
# Procedure: In order to evaluate the inhibitory action for autoimmune and inflammatory diseases of the present compounds, the evaluation of Rat type II collagen-induced arthritis model was carried out. The specific method is described below.
# 0.05 mol/L acetic acid was added to bovine type II collagen (Collagen Research Center, Cat No. K42) so that it became 2 mg/mL on the day before primary sensitization and secondary sensitization, and the mixture was allowed to stand overnight in a refrigerator to dissolve the material. Immediately before sensitization, it was mixed with an equal amount of Freund's incomplete adjuvant (available from Difco, Cat No. 263910) to prepare an emulsion for sensitization.
# An appropriate amount of each compound was weighed, triturated with an agate mortar, and suspended or dissolved in 1% methyl cellulose solution to prepare 6 mg/mL solution.
# LEW/CrlCrlj rats (female, purchased from Charles River Laboratories Japan, Inc.) were weighted on the day of primary sensitization (Day 0) and primary grouped to an arthritis non-induced group and an arthritis induced group based on the measured body weight using a random number. The rats (other than the arthritis non-induced group) were thereafter administrated the emulsion for sensitization ([…]) into the skin of the dorsum (divided into 5 portions) under general anesthesia with isoflurane inhalation (available from Mylan Seiyaku Ltd.). Seven days after the primary sensitization (Day 7), the rats (other than the arthritis non-induced group) were manually held in hands and administered the emulsion for sensitization (100 μL) into the skin of the tail. On Day 12, the rats developing arthritis were selected, a random number was used to avoid difference in an average hind limb volume between the groups, and the arthritis induced group was secondary grouped to a control group and each compound-administered group, wherein each group contained 8 samples. The rats were forced orally administered 1% methyl cellulose solution (arthritis non-induced group and control group) or each administration solution comprising the compound (each compound-administered group) at a dose of 5 mL/kg into stomach using a feeding needle once a day from Day 12. The volume of both hind limbs of each rat was measured using a plethysmometer (from Unicom) on Day 0, 4, 7, 12, 14, 18 and 21.
# (Calculation of Limb Edema Suppression Rate) The limb edema suppression rate (%) was calculated by the following equation using Microsoft EXCEL 2010. Limb edema suppression rate (%)=100−{(average value of hind limb volume of each compound-administered group on Day 21)−(average value of hind limb volume of arthritis non-induced group on Day 21))/(average value of hind limb volume of control group on Day 21)−(average value of hind limb volume of arthritis non-induced group on Day 21)}×100
Structure (SMILES),inhibition at 10 µM [1] [%],inhibition in vivo at 10 mg/kg (IL-6 production) [%],Limb edema suppression rate(%) [2] [%]
"Cc1sc2c(c1C)C(c1ccc(Cl)cc1)=NN(Cc1ccccn1)c1nnc(C)n1-2 [Example 5, 4-(4-chlorophenyl)-2,3,9-trimethyl-6-(pyridin-2-ylmethyl)-6H-thieno[2,3-e][1,2,4]triazolo[3,4-c][1,2,4]triazepine]",100,77.5,92.9
"Cc1sc2c(c1C)C(c1ccc(Cl)cc1)=NN(Cc1cccnc1F)c1nnc(C)n1-2 [Example 25, 4-(4-chlorophenyl)-6-((2-fluoropyridin-3-yl)methyl)-2,3,9-trimethyl-6H-thieno[2,3-e][1,2,4]triazolo[3,4-c][1,2,4]triazepine]",100,26.3,39.8
"Cc1sc2c(c1C)C(c1ccccc1)=NN(Cc1ccccn1)c1nnc(C)n1-2 [Example 31, 2,3,9-trimethyl-4-phenyl-6-(pyridin-2-ylmethyl)-6H-thieno[2,3-e][1,2,4]triazolo[3,4-c][1,2,4]triazepine]",97.8,57.5,68.9

# Further lines, with some results ahead:
inhibition at 10 µM [1] [%],Structure (SMILES),inhibition in vivo at 10 mg/kg (IL-6 production) [%],Limb edema suppression rate(%) [2] [%]
100,"Cc1sc2c(c1C)C(c1ccc(Cl)cc1)=NN(Cc1cccnc1Cl)c1nnc(C)n1-2 [Example 38, 4-(4-chlorophenyl)-6-((2-chloropyridin-3-yl)methyl)-2,3,9-trimethyl-6H-thieno[2,3-e][1,2,4]triazolo[3,4-c][1,2,4]triazepine]",20.2,11.9
100,"CC(=O)Nc1ccc(C2=NN(Cc3cccnc3)c3nnc(C)n3-c3sc(C)c(C)c32)cc1 [Example 71, N-(4-(2,3,9-trimethyl-6-(pyridin-3-ylmethyl)-6H-thieno[2,3-e][1,2,4]triazolo[3,4-c][1,2,4]triazepin-4-yl)phenyl)acetamide]",79,93.8
